# Data reported in patent US20210369853A1, “TARGETED PROTEASE DEGRADATION PLATFORM” (EUBULUS BIOTHERAPEUTICS INC., priority 2018, published 2021).
# Test system: Human Monocytic Leukemia MV4-11
# Experiment: Cell proliferation experiment (Alarm blue, 72 h, EC50)
# Assay type: cell-based
# Settings: Homo sapiens, MV4-11, MV4;11 cells
# How it was run: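 Log-phase cells, passaged at least 2 generations, were seeded in 96-well plates and exposed to test compound in complete medium as a 5-fold dilution series in duplicate for 72 h. Fluorescence was read by Alamar blue and EC50 fitted to a four-parameter curve (Min, Max, Slope).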
row,SMILES,EC50 [nM]
1,Cc1ncsc1-c1ccc(CNC(=O)[C@@H]2C[C@@H](O)CN2C(=O)[C@@H](NC(=O)CCNCCOCCOCCOCCNC(=O)[C@]2(Cc3cccc(Nc4nccs4)n3)CC[C@@H](Oc3cccc(Cl)c3F)CC2)C(C)(C)C)cc1 [UB-180782],> 1000
2,Cc1ncsc1-c1ccc(CNC(=O)[C@@H]2C[C@@H](O)CN2C(=O)[C@@H](NC(=O)CNCCOCCOCCOCCNC(=O)[C@]2(Cc3cccc(Nc4nccs4)n3)CC[C@@H](Oc3cccc(Cl)c3F)CC2)C(C)(C)C)cc1 [UB-180783],> 1000
3,Cc1ncsc1-c1ccc(CNC(=O)[C@@H]2C[C@@H](O)CN2C(=O)[C@@H](NC(=O)CCNCCOCCn2cc(CNC(=O)c3ccc(Nc4ncc5c(n4)-c4ccc(Cl)cc4C(c4c(F)cccc4F)=NC5)cc3)nn2)C(C)(C)C)cc1 [UB-180784],> 1000
4,Cc1ncsc1-c1ccc(CNC(=O)[C@@H]2C[C@@H](O)CN2C(=O)[C@@H](NC(=O)CCNCCOCCn2cc(CNC(=O)[C@]3(Cc4cccc(Nc5nccs5)n4)CC[C@@H](Oc4cccc(Cl)c4F)CC3)nn2)C(C)(C)C)cc1 [UB-180785],> 1000
5,Cc1ncsc1-c1ccc(CNC(=O)[C@@H]2C[C@@H](O)CN2C(=O)[C@@H](NC(=O)CCNCCn2cc(COCCOCCNC(=O)c3ccc(Nc4ncc5c(n4)-c4ccc(Cl)cc4C(c4c(F)cccc4F)=NC5)cc3)nn2)C(C)(C)C)cc1 [UB-180786],> 1000
6,Cc1ncsc1-c1ccc(CNC(=O)[C@@H]2C[C@@H](O)CN2C(=O)[C@H](NC(=O)CCCNCCn2cc(COCCOCCNC(=O)c3ccc(Nc4ncc5c(n4)-c4ccc(Cl)cc4C(c4c(F)cccc4F)=NC5)cc3)nn2)C(C)(C)C)cc1 [UB-180787],> 1000
7,Cc1ncsc1-c1ccc(CNC(=O)[C@@H]2C[C@@H](O)CN2C(=O)[C@@H](NC(=O)COCCNCCn2cc(COCCOCCNC(=O)c3ccc(Nc4ncc5c(n4)-c4ccc(Cl)cc4C(c4c(F)cccc4F)=NC5)cc3)nn2)C(C)(C)C)cc1 [UB-180788],> 1000
8,Cc1ncsc1-c1ccc(CNC(=O)[C@@H]2C[C@@H](O)CN2C(=O)[C@@H](NC(=O)CCNCCn2cc(COCCOCCOCCNC(=O)[C@]3(Cc4cccc(Nc5nccs5)n4)CC[C@@H](Oc4cccc(Cl)c4F)CC3)nn2)C(C)(C)C)cc1 [UB-180789],> 1000
9,Cc1ncsc1-c1ccc(CNC(=O)[C@@H]2C[C@@H](O)CN2C(=O)[C@@H](NC(=O)CCCNCCn2cc(COCCOCCOCCNC(=O)[C@]3(Cc4cccc(Nc5nccs5)n4)CC[C@@H](Oc4cccc(Cl)c4F)CC3)nn2)C(C)(C)C)cc1 [UB-180790],> 1000

# Results, then the compound that gave them:
row,EC50 [nM],SMILES
1,100 to 1000,O=C1CCC(N2Cc3c(NC(=O)CCNCCOCCN4CCC(NC(=O)c5ccc(Nc6ncc7c(n6)-c6ccc(Cl)cc6C(c6c(F)cccc6F)=NC7)cc5)CC4)cccc3C2=O)C(=O)N1 (stereo not shown) [UB-180775]
2,100 to 1000,O=C1CCC(N2Cc3c(NC(=O)CCNCCOCCN4CCC(NC(=O)[C@]5(Cc6cccc(Nc7nccs7)n6)CC[C@@H](Oc6cccc(Cl)c6F)CC5)CC4)cccc3C2=O)C(=O)N1 (stereo partly shown) [UB-180776]
3,100 to 1000,O=C1CCC(N2Cc3c(NC(=O)CCNCCOCCOCCNC(=O)c4ccc(Nc5ncc6c(n5)-c5ccc(Cl)cc5C(c5c(F)cccc5F)=NC6)cc4)cccc3C2=O)C(=O)N1 (stereo not shown) [UB-180777]
4,> 1000,O=C1CCC(N2Cc3c(NC(=O)CCCCNCCOCCOCCOCCNC(=O)[C@]4(Cc5cccc(Nc6nccs6)n5)CC[C@@H](Oc5cccc(Cl)c5F)CC4)cccc3C2=O)C(=O)N1 (stereo partly shown) [UB-180778]
5,> 1000,O=C1CCC(N2Cc3c(NC(=O)CCCNCCOCCOCCOCCNC(=O)[C@]4(Cc5cccc(Nc6nccs6)n5)CC[C@@H](Oc5cccc(Cl)c5F)CC4)cccc3C2=O)C(=O)N1 (stereo partly shown) [UB-180779]
6,> 1000,Cc1ncsc1-c1ccc(CNC(=O)[C@@H]2C[C@@H](O)CN2C(=O)[C@@H](NC(=O)CCNCCOCCOCCOCCNC(=O)c2ccc(Nc3ncc4c(n3)-c3ccc(Cl)cc3C(c3c(F)cccc3F)=NC4)cc2)C(C)(C)C)cc1 [UB-180780]
7,100 to 1000,Cc1ncsc1-c1ccc(CNC(=O)[C@@H]2C[C@@H](O)CN2C(=O)[C@@H](NC(=O)CNCCOCCOCCOCCNC(=O)c2ccc(Nc3ncc4c(n3)-c3ccc(Cl)cc3C(c3c(F)cccc3F)=NC4)cc2)C(C)(C)C)cc1 [UB-180781]
